Reference: publication PMC4569013, “Massive Bioaccumulation and Self‐Assembly of Phenazine Compounds in Live Cells” (Advanced Science, 2015)

How the values were obtained:
[1] = design: method as in PMID 21800872; settings: DMEM with 5% FBS; cited from earlier work
[2] = Solubility measurements in cell culture media (DMEM) with or without FBS; assay type: physicochemical; settings: at the concentrations added to the cells
Protocol: Solubility Measurements: Solutions containing the phenazine derivatives were made in cell culture media (DMEM) with or without FBS (10%). After a 24 h incubation, the solutions were centrifuged (10 000 × g, 10 min), the supernatant was removed and the precipitate was dissolved in 9 M H2SO4. The supernatant was diluted with 10 M NaOH to precipitate the remaining solubilized compound. The diluted supernatant was centrifuged (10 000 × g, 10 min) followed by dissolution of the precipitate in 9 M H2SO4. Both fractions were spectrophotometrically measured with a Biotek microplate spectrophotometer (λ = 540 nm) and phenazine content was determined using calibrated clofazimine standards.

RAW264.7 macrophages [3] = experiment: Cell accumulation experiment, transmitted light microscopy of cellular staining pattern; assay type: cell-based; settings: for Inferred uptake: inferred from staining pattern after 72 hour incubation; for Observed cellular staining pattern (Notes): live cells, 72 hour incubation, 5 × 10^−6 M (2.5 × 10^−6 M for I); for Staining in fixed cells: methanol-fixed cells incubated 72 h with compound (control)
Protocol: Cell Accumulation Experiments and Transmitted Light Microscopic Examination: […] After a 24 h incubation (37 °C, 5% CO2), cells were incubated with solution of clofazmine or its chemical derivatives (300 μL of 5 × 10^−6 m concentration; measured cell viability ranging from 85% to 97% for all compounds tested at this concentration; Figure 1) in DMEM (no phenol red; plus 1 × 10^−3 M sodium pyruvate and 5% FBS). For Compound “I,” 2.5 × 10^−6 M of compound solution in media was used for the RAW 264.7 macrophages incubation because of lower cell viability at higher concentrations (IC50 = (3.95 ± 0.11) × 10^−6 M). A solution of clofazmine or other chemical derivatives was made by a diluting stock solutions (2.5 × 10^−3 M in DMSO; 10 × 10^−3 M stock in DMSO were stored at −80 °C for further use) into DMEM with 5% FBS. […] The extracellular concentration of each compound in each well was maintained by daily replacement of the compound‐containing media. After 72 h of incubation with clofazmine or its derivatives, compound‐containing media were removed and cells were washed twice with media. Live cells in the chambered glasses were examined under inverted transmitted light microscopy (Nikon Eclipse Ti microscope) with a 40× objective and color camera. As a control experiment, fixed cells were also microscopically examined after incubation with the compounds. Cells were seeded on the chambered cover glasses at the density of 1.5 × 10^4 cells cm^−2 (RAW264.7 macrophages) or 2.5 × 10^4 cells cm^−2 (MDCK epithelial cells). After an overnight incubation (37 °C, 5% CO2), media was removed from the wells and cold methanol (−20 °C) was added to each well. After 30 s, remaining methanol was removed by washing with media with 5% FBS. Fixed cells were incubated (37 °C, 5% CO2) with clofazmine or derivatives (300 μL of 5 × 10^−6 M; 2.5 × 10^−6 M for I) in media with 5% FBS. After 72 h, fixed RAW264.7 or MDCK cells were washed with media and examined using the same transmitted microscopy conditions as the live cells.

RAW264.7 macrophages [4] = experiment: Confocal fluorescence microscopy, intracellular localization of inclusions; assay type: cell-based; settings: 5 × 10^−6 M, 72 h, live cells
Protocol: (§1) Confocal Fluorescent Microscopy: A Nikon A1 confocal microscope was used for further investigation of live cells incubated with chiral pairs of compounds (T and U) and the parent compound, P. Since crystals or vesicular forms containing chemicals inside the cells incubated with Compound P, T, or U were fluorescent when viewed with the TRITC filter sets, intracellular distribution of these compounds in RAW264.7 or MDCK cells were visualized using a Nikon A1 confocal microscopy (Nikon Instruments Inc., Melville, NY) equipped with diode‐based lasers and a Nikon Apo 60×/1.4 NA oil immersion lens. Briefly, RAW264.7 macrophages or MDCK epithelial cells were seeded in the 8‐well Nunc Lab‐Tek II chambered (#1.5) cover glasses (Thermo Scientific, Pittsburgh, PA) at a density of 8 × 10^3 cells cm^−2 (RAW264.7 cells) or 1.5 × 10^4 cells cm^−2 (MDCK cells) and allowed to adhere overnight (37 °C, 5% CO2). Then, 5 × 10^−6 M of Compound “P” or the related isomers, “T” or “U” in DMEM with 5% FBS (300 μL) was added to the cells and the cells were incubated for 72 h (37 °C, 5% CO2). For live cell imaging, after the removal of media, cells were washed with HBSS buffer twice. Hoechst 33342 (Invitrogen, Carlsbad, CA) was used for staining cell nuclei and FM 1‐43 (Molecular Probes T35356, Invitrogen) for the plasma membrane. Cells were incubated with 300 μL of 1:1 (v/v) dye mixtures of 5 μg mL^−1 Hoechst 33342 and 7 × 10^−6 M FM 1‐43 in HBSS for 15 min at room temperature. Without fixative, the confocal imaging of the live cells was performed using lasers for DAPI (excitation/emission wavelength: 405 nm/450 ± 25 nm), FITC (488 nm/525 ± 25 nm), and TRITC (561 nm/596 ± 25 nm) channels. Z‐stack images of the cells were captured along the Z‐axis (interval, 1 μm) in three fluorescence channels and analyzed by using the Nikon NIS‐Elements 3.2 confocal software (Nikon Instruments Inc., Melville, NY). […]

MDCK epithelial cells = experiment: as above; assay type: cell-based, Canine; settings: 5 × 10^−6 M, 72 h, live cells
Protocol: as §1

RAW264.7 macrophages [5] = experiment: XTT colorimetric cytotoxicity assay; assay type: cell-based; settings: Mus musculus, RAW 264.7 macrophages, 72 h incubation, read-out: IC50 (cell viability, XTT)
Protocol: Cytotoxicity Measurements: A 3′‐bis(4‐methoxy‐6‐nitro)benzene‐sulfonic acid hydrate (XTT) colorimetric assay was performed to assess the cytotoxicity of the clofazmine derivatives in RAW264.7 macrophages or MDCK epithelial cells using a Cell Proliferation Kit II (Roche Chemicals, Indianapolis, IN). […] The absorbance value in each well was measured at 495 nm against a reference wavelength at 650 nm using a microplate reader (Synergy 2, BioTek Instruments, Winooski, VT). […] The IC50 value for each compound was calculated from the concentration‐response curve generated by a nonlinear regression (curve fit) method in GraphPad Prism version 5.0 (GraphPad Software, Inc., San Diego, CA). The concentration of clofazimine or its chemical derivatives used for further in vitro cell studies was determined based on cell viability (%) assay results (see the next section).

| Solubility in serum containing media [2] | Inferred uptake (RAW264.7 macrophages [3]) | Structure (SMILES) | Precipitate formation in media [1] | Observed cellular staining pattern (Notes) (RAW264.7 macrophages [3]) | Intracellular localization of compound (fluorescence, TRITC channel) (RAW264.7 macrophages [4]) | Intracellular localization of compound (fluorescence, TRITC channel) (MDCK epithelial cells) | Staining in fixed cells (RAW264.7 macrophages [3]) | IC50 (RAW264.7 macrophages [5]) | Cellular staining relative to clofazimine (RAW264.7 macrophages [3]; live macrophages, 72 h) |
| --- | --- | --- | --- | --- | --- | --- | --- | --- | --- |
| stably solubilized | Moderate | CC(C)/N=c1\cc2n(-c3ccc(Cl)cc3)c3ccccc3nc-2cc1Nc1ccc(Cl)cc1 [Clofazimine, clofazimine, reference compound] | did not form visible precipitates | Orange-brown staining pattern associated with perinuclear cytoplasmic vesicles | – | – | – | – | – |
| – | Moderate | CC(CN=c1cc2n(-c3ccc(Cl)cc3)c3ccccc3nc-2cc1Nc1ccc(Cl)cc1)c1ccccc1 (centres unmarked) [Compound T] | – | Faint orange perinuclear vesicles are present in live cells | localized at the periphery of the cell nuclei | localized at the periphery of the cell nuclei | Staining not observed in fixed cells | – | – |
| – | Excellent | OCCN=c1cc2n(-c3ccc(Cl)cc3)c3ccccc3nc-2cc1Nc1ccc(Cl)cc1 [I] | – | Dark brown, crystal-like inclusions present in live cells | – | – | absent in fixed cells | 3.95 µM | comparable in morphology and intensity to those of clofazimine |
